Our source for the IC50 values is patent US10508108B2, “Tricyclic compounds as inhibitors of mutant IDH enzymes” (Merck Sharp & Dohme Corp., priority 2014, dated 2019).

Chain of R132H mutant IDH1 enzyme (O75874 whole entry R132H): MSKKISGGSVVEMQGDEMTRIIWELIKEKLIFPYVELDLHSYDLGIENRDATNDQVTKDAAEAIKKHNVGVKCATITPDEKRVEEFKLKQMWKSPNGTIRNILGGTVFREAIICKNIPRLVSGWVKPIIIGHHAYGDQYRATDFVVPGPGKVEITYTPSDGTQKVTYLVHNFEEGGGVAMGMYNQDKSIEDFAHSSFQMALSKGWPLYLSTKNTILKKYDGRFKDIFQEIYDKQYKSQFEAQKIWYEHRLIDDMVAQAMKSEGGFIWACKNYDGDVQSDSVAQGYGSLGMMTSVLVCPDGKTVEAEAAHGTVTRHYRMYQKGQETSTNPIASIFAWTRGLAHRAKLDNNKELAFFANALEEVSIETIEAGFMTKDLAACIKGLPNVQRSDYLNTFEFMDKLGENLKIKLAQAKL

The assay deals with R132H mutant IDH1 enzyme (Homo sapiens (Human), UniProt O75874, R132H). The assay can be described thus: R132H IDH1 Enzymatic Assay. The following applies: R132H mutant IDH1 enzyme 1.5 nM final; luminescence (Kinase-GLO) readout. Format: biochemical. Here is the method:
R132H IDH1 Enzymatic Assay
Luminescence is measured using a PerkinElmer Envision plate reader.
Molecule `COC1CC2CCC(C1)C2C(=O)N1Cc2cccnc2Nc2ccc(N3CCOCC3)cc21` (centres unmarked) [Example 2, 6-{[(3s,8s)-3-methoxybicyclo[3.2.1]oct-8-yl]carbonyl}-8-morpholin-4-yl-6,11-dihydro-5H-pyrido[2,3-b][1,5]benzodiazepine] came in with an IC50 of 226 nM.
For `CC(C)[C@@H]1COC(=O)N1c1ccc2c(c1)N(C(=O)[C@]13C[C@H]4C[C@H](C[C@H](C4)C1)C3)Cc1cccnc1N2` [Example 119, (4R)-4-(1-Methylethyl)-3-{6-[(3S,5S,7S)-tricyclo[3.3.1.1˜3,7˜]dec-1-ylcarbonyl]-6,11-dihydro-5H-pyrido[2,3-b][1,5]benzodiazepin-8-yl}-1,3-oxazolidin-2-one] the value was 22 nM; for `O=C(C1C[C@H]2COC[C@@H](C1)N2CC(F)(F)F)N1Cc2cccnc2Nc2ccc(N3C[C@H]4CC[C@@H]3CO4)cc21` (stereo partly drawn) [Example 129, (8-((1R,4R)-2-Oxa-5-azabicyclo[2.2.2]octan-5-yl)-5,11-dihydro-6H-benzo[b]pyrido[2,3-e][1,4]diazepin-6-yl)((1R,5S)-9-(2,2,2-trifluoroethyl)-3-oxa-9-azabicyclo[3.3.1]nonan-7-yl)methanone], 6 nM.
For `O=C(C1C[C@H]2COC[C@@H](C1)N2CC(F)(F)F)N1Cc2cccnc2Nc2ccc(N3C[C@@H]4CC[C@H]3CO4)cc21` (stereo partly drawn) [Example 130, (8-((1 S,4S)-2-oxa-5-azabicyclo[2.2.2]octan-5-yl)-5,11-dihydro-6H-benzo[b]pyrido[2,3-e][1,4]diazepin-6-yl)((1R,5S)-9-(2,2,2-trifluoroethyl)-3-oxa-9-azabicyclo[3.3.1]nonan-7-yl)methanone] the value was 5 nM.
For `COC1CC2CCC(C1)C2C(=O)N1Cc2cccnc2Nc2ccc(N3CCOCC3)cc21` (centres unmarked) [Example 1, 6-{[(3r,8r)-3-Methoxybicyclo[3.2.1]oct-8-yl]carbonyl}-8-morpholin-4-yl-6,11-dihydro-5H-pyrido[2,3-b][1,5]benzodiazepine] the value was 1050 nM.
